Assays:
[1] = Cytotoxicity, alamarBlue, murine macrophages; format: cell-based; conditions: mouse, J774A.1 murine macrophage cell line, J774A.1 murine macrophages, mean ± SD
Protocol: (§1) The cytotoxicity was evaluated against murine macrophages (J774A.1) using the same method mentioned in the antiparasitic assay, based on the alamarBlue Cell Viability Reagent®. In a sterile 96-well plate, 10^4 cells per well were added, then, after the complete adhesion, serial dilutions of the 32 compounds, using a deep well plate, and a 10% of alamarBlue® were joined.

[2] = tested on: epimastigotes of Trypanosoma cruzi; assay: Mitochondrial membrane potential analysis (JC-1); format: cell-based; conditions: 24 h with the IC90, JC-1, Tukey test, Figure 2
Protocol: The detection of variations in the mitochondrial membrane potential was evaluated with the JC-1 Mitochondrial Membrane Potential Assay Kit® (Cayman Chemical, Ann Arbor, MI, USA). In a 24-well plate, 500 µL of epimastigotes at 10^6 parasites per ml were added with the inhibitory concentration 90 (IC90) of the compounds. After 24 h of incubation at 26 °C, the epimastigotes were centrifuged (3000 rpm, 10 min, 4 °C), resuspended in 50µL of JC-1 buffer and added to a black 96-well plate with 5 µL of JC-1. After 30 min of incubation at 26 °C, the green and red fluorescence were measured using an EnSpire Multimode Plate Reader® (PerkinElmer). Results were expressed in percentage relative to negative control (without treatment) of the ratio 595/535 nm (J-aggregates/J-monomers).

[3] = tested on: epimastigotes of Trypanosoma cruzi; assay: ATP level analysis (CellTiter-Glo); format: cell-based; conditions: 24 h with the IC90, CellTiter-Glo, Figure 3
Protocol: Variations in the level of ATP were measured with the CellTiter-Glo® Luminescent Cell Viability Assay (Promega, WI, USA). […] Then, in a white 96-well plate, the epimastigotes were resuspended in 25µL of culture media and mixed with 25 µL of the kit. After 10 min of incubation at room temperature, the luminescence was measured using an EnSpire Multimode Plate Reader® (PerkinElmer). The results were expressed in percentage of production of ATP level relative to the negative control (without any treatment).

[4] = tested on: epimastigote stage of T. cruzi; assay: Antiparasitic activity, alamarBlue, epimastigotes; format: cell-based, Trypanosoma cruzi; conditions: for Selectivity index (SI): ratio of CC50 for J774A.1 and IC50 for epimastigotes of T. cruzi
Protocol: Epimastigotes of Trypanosoma cruzi (Y strain) were used in this study and cultured in liver infusion tryptose (LIT) medium supplemented with 10% of foetal bovine serum (FBS) at 26 °C.
In a sterile 96-well plate, a serial dilution of acrylonitriles was carried out in LIT medium supplemented with 10% FBS with a final volume of 100 µL. Parasites were added to wells to reach a concentration of 10^5 parasites per well. Finally, a 10% of alamarBlue Cell Viability Reagent® (ThermoFisher Scientific, Waltham, MA, USA) was added into each well, and the plate was incubated for 72 h at 26°C.

[5] = tested on: J774A.1 murine macrophage cell line; assay: Cytotoxicity, alamarBlue, murine macrophages; format: cell-based; conditions: J774A.1 murine macrophages, 24 h, mean ± SD
Protocol: as §1

Structure (SMILES)	CC50 at 24 h [1] [µM]	Variations in the mitochondrial membrane potential relative to negative control [2]	Percentage of ATP level relative to untreated control [3] [%]	IC50 ([4]; epimastigote stage of T. cruzi (Y strain), 72 h, alamarBlue, mean ± SD, NA: not active) [µM]	Selectivity index (SI) [4]	CC50 [5] [µM]
O=C(Cn1ccnc1[N+](=O)[O-])NCc1ccccc1 [BENZ, benznidazole, reference compound]	> 1500	decreasing the inter-membrane potential of the mitochondria	18.26			
N#CC=CC(=O)N1C(=O)OC[C@H]1c1ccccc1 [Compound Q31, (E)-(R,E)-4-Oxo-4-(2-oxo-4-phenyloxazolidin-3-yl)but-2-enenitrile]				20.38 ± 0.13	0.51	10.4 ± 1.06
N#CC=CC(=O)N1C(=O)OC[C@H]1c1ccccc1 [Compound Q32, (Z)-(R,Z)-4-Oxo-4-(2-oxo-4-phenyloxazolidin-3-yl)but-2-enenitrile]					0.78	2.89 ± 0.74

Reference: paper PMC8228537, “Acrylonitrile Derivatives against Trypanosoma cruzi: In Vitro Activity and Programmed Cell Death Study” (Pharmaceuticals, 2021)
